Test results published in patent US6026817A, “Method of treating the syndrome of coronary heart disease risk factors in humans” (priority 1998, dated 2000).
pIC50: −log10 of the molar value. Several values for one entry are separate records, joined by “and”; a condition that tells them apart may be missing. Identical values can stand only once.

Tests used:
[1] = tested on: insulin resistant subject one; assay: Example II: CHMMO given to an insulin resistant subject, blood values and liver enzymes; format: in vivo, human
Description: A insulin resistant subject was given 17-cyclopropylmethyl-3-hydroxy-14-methoxy-8β-methylmorphinan-6-one hydrochloride (CEMMO), a pure opioid antagonist, in two daily doses of 18 mg each for the duration of one week, followed by 9 mg b.i.d. for another 4 weeks.

κ opioid receptor = κ opioid receptor (Homo sapiens, UniProt P41145); assay: biochemical; format: binding; conditions: prototype ligand EKC
Description: (§1) For each receptor there is a prototype ligand. […] For the μ receptor the prototype ligand is DHM (dihydromorphine). For the δ receptor, the prototype ligand is DADLE (D-Ala+D-Leu-Enkephalin), and for the κ receptor, the prototype ligand is EKC (ethylketocyclazocine).

μ opioid receptor = μ opioid receptor (Homo sapiens, UniProt P35372); assay: biochemical; format: binding; conditions: prototype ligand DHM
Description: as §1

δ opioid receptor = δ opioid receptor (Homo sapiens, UniProt P41143); assay: Receptor binding, displacement of prototype ligand DADLE
Description: as §1

[2] = tested on: μ, δ, and κ opiate receptors; assay: Ratios of IC50 between opiate receptors; format: binding
Description: as §1
The relationship between the IC50 levels f or the μ, δ, κ opiate receptors may also be expressed in terms of a ratio.

[3] = tested on: subject one with Impaired Glucose Tolerance and borderline Type 2 Diabetes; assay: Example III: Nalmefene given to a subject with Impaired Glucose Tolerance, blood values, enzymes, weight, blood pressure; format: in vivo, human; design: HgbA1c Δ% (reduction) / C-Peptide Δ% (reduction) / Chol. Total Δ% (reduction) / LDL-C. Δ% (reduction) / TG Δ% (reduction) / FFA Δ% (reduction): concentration or dose not given beside the values
[4] = tested on: women with polycystic ovary syndrome with Acanthosis Nigrians; conditions: four women, period of a few days; cited from earlier work
body weight = conditions: in vivo; cited from earlier work
[5] = tested on: patients with prolactin-producing tumors of the pituitary gland; conditions: cited from earlier work
[6] = tested on: insulin resistant subject; assay: Example I: metyrosine given to an insulin resistant subject, fasting blood values; format: in vivo, human
Description: A insulin resistant subject was given 250 mg metyrosine twice daily.

[7] = tested on: experimental brain trauma; conditions: in vivo; cited from earlier work
adult male rats = conditions: intracisternal administration, conscious rats, dose related; cited from earlier work
[8] = Day 41 vs Day 1 (after 5 weeks)
[9] = Day 41 vs Day 1 (after 5 weeks), hydrochloride
[10] = Day 41 vs Day 1 (after 5 weeks), listed as CEMMO, hydrochloride
[11] = day 41 (after 5 weeks), 18 mg b.i.d. one week, then 9 mg b.i.d.
[12] = day 41, 18 mg b.i.d. one week, then 9 mg b.i.d.
[13] = 8 weeks of 250 mg twice daily vs initial
[14] = initial levels, before treatment

Sequence of μ opioid receptor (P35372 whole entry): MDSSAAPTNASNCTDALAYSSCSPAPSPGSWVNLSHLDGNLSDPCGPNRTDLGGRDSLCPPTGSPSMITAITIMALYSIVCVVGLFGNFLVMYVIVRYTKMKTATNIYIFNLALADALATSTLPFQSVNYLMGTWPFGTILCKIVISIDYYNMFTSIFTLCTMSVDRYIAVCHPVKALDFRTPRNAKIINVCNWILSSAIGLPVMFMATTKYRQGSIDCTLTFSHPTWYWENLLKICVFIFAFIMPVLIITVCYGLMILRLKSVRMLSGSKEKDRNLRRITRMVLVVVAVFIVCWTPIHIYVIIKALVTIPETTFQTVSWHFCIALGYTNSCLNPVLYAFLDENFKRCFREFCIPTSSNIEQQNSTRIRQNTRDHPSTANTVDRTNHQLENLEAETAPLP
Sequence of δ opioid receptor (P41143 whole entry): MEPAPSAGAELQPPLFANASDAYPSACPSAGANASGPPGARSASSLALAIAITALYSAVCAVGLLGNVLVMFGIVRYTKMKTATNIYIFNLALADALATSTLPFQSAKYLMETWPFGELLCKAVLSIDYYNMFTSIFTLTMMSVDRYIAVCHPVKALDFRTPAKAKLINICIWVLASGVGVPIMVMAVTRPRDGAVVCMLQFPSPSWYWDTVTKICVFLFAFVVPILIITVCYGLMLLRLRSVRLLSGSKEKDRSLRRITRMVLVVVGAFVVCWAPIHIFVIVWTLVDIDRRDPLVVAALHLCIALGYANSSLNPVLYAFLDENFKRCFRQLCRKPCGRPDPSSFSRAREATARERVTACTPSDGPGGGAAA
Sequence of κ opioid receptor (P41145 whole entry): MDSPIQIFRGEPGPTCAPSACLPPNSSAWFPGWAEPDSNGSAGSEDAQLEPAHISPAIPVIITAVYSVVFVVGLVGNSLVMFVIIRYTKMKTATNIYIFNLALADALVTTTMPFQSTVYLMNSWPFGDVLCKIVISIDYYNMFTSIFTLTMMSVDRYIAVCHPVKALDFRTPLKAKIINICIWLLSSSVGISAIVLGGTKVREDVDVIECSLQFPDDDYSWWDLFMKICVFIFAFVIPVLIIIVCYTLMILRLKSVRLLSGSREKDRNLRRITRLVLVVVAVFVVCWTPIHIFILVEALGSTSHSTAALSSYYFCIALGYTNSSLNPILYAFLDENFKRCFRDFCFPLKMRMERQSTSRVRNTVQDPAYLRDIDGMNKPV

## CO[C@@]12[C@@H](C)CC(=O)C[C@@]13CCN(CC1CC1)[C@@H]2Cc1ccc(O)cc13.Cl [CHMMO, 17-cyclopropylmethyl-3-hydroxy-14-methoxy-8βmethylmorphinan-6-one hydrochloride]
[1]; Day 1
  Weight: 82 kg
[1]; Day 1, Table III
  Alk-phos: 145 U/L
[1]; Day 41, 9.0 mg b.i.d.
  Weight: 80 kg
[1]; Day 41, 9.0 mg b.i.d., Table III
  Alk-phos: 126 U/L
[1]; Day 41 vs Day 1
  ALT Δ%: 31%
  AST Δ%: 30%
  Alk-phos Δ%: 6%
  Glucose Δ%: 14%
  LD Δ%: 27%
  Weight Δ%: 4.5%
[1]; [8]
  Chol. Total Δ% (fall): 21%
  LDL-C. Δ% (fall): 7%
  TG Δ% (fall): 42%
[1]; [9]
  FFA Δ% (fall): 22.7%
  HDL-C. Δ% (increase): 16%
  Insulin Δ% (fall): 50%
  LDL/HDL Δ% (improvement): 22%
[1]; [10]
  FFA Δ% (fall): 23%
  HDL-C. Δ% (increase): 20%
  Insulin Δ% (fall): about 50%
  LDL/HDL Δ% (improvement): 23%
[1]; after the first week, 18 mg twice daily, remained essentially at the same level
  Blood glucose: 95 mg/dL
[1]; day 1
  ALT: 29 U/L
  AST: 23 U/L
  CH. T (total cholesterol): 234 mg/dL
  FFA: 0.75 mM/L
  Gluc.: 111 mg/dL
  HDL: 30 mg/dL
  Insulin: 14 μU/ml
  LD: 162 U/L
  LDL: 156 mg/dL
  LDL/HDL: 5.2
  TG: 229 mg/dL
[1]; day 1, Table II (unit not given)
  Alk.-Phos: 145
[1]; day 41
  ALT: 20 U/L
  AST: 16 U/L
  LD: 117 U/L
[1]; [11]
  CH. T (total cholesterol): 185 mg/dL
  HDL: 36 mg/dL
  Insulin: 6 μU/ml
  LDL: 145 mg/dL
  TG: 133 mg/dL
[1]; day 41 (after 5 weeks), 18 mg b.i.d. one week, then 9 mg b.i.d., hydrochloride
  LDL/HDL: 4.0 and 4.03
[1]; day 41 (after 5 weeks), 18 mg b.i.d. one week, then 9 mg b.i.d., listed as CEMMO, hydrochloride
  LDL/HDL: 4.0
[1]; day 41, Table II (unit not given)
  Alk.-Phos: 126
[1]; [12]
  FFA: 0.58 mM/L
  Gluc.: 95 mg/dL
[1]; during the first week, 18 mg twice daily
  drop of blood glucose: 15%
[1]; end of study, after 5 weeks
  FFA: 580 μE/L
[1]; end of the study
  Weight: slight weight loss
[1]; start of study
  FFA: 754 μE/L
κ opioid receptor
  pIC50: 9.02
μ opioid receptor
  pIC50: 9.30
δ opioid receptor
  pIC50: 9.10
[2]
  IC50 κ/ IC50 δ ratio: < 3
  IC50 κ/ IC50 μ ratio: < 3
  δ,κ,μ IC50 being within a factor of: ≤ 3

## C=C1CC[C@@]2(O)[C@H]3Cc4ccc(O)c5c4[C@@]2(CCN3CC2CC2)[C@H]1O5 [Nalmefene, 6-desoxy-6-methylene-naltrexone]
[3]; Day 1
  ALT: 72 U/L
  AST: 31 U/L
  Alk-phos: 70 U/L
  Blood Pressure, diastolic: 100
  Blood Pressure, systolic: 136
  C-Peptide: 4.7 ng/mL
  Chol. Total: 247 mg/dL
  FFA: 0.68 mM/L
  GG-transp: 56 U/L
  Glucose: 138 mg/dL
  HDL-C.: 37 mg/dL
  HgbA1c: 6.0%
  Insulin: 27 μU/ml
  LD: 125 U/L
  LDL-C.: 140 mg/dL
  LDL/HDL: 3.78
  TG: 270 mg/dL
  Weight: 86 kg
[3]; Day 141, 0.5 mg b.i.d.
  ALT: 42 U/L
  AST: 16 U/L
  Alk-phos: 72 U/L
  Blood Pressure, diastolic: 83
  Blood Pressure, systolic: 128
  C-Peptide: 2.9 ng/mL
  Chol. Total: 193 mg/dL
  FFA: 0.41 mM/L
  GG-transp: 32 U/L
  Glucose: 120 mg/dL
  HDL-C.: 40 mg/dL
  HgbA1c: 5.4%
  Insulin: 16 μU/ml
  LD: 120 U/L
  LDL-C.: 118 mg/dL
  LDL/HDL: 2.95
  TG: 175 mg/dL
  Weight: 79 kg
[3]; Day 141 vs Day 1
  ALT Δ%: 42%
  AST Δ%: 48%
  Alk-phos Δ%: 3%
  Blood Pressure reduction, diastolic: 17 pts
  Blood Pressure reduction, systolic: 8 pts
  C-Peptide Δ% (reduction): 38%
  Chol. Total Δ% (reduction): 22%
  FFA Δ% (reduction): 40%
  GG-transp Δ%: 43%
  Glucose Δ% (reduction in fasting blood glucose): 13%
  HDL-C. Δ% (increase): 8%
  HgbA1c Δ% (reduction): 10%
  Insulin Δ%: 43%
  LD Δ%: 4%
  LDL-C. Δ% (reduction): 16%
  LDL/HDL Δ% (improvement): 22%
  TG Δ% (reduction): 35%
  Weight Δ% (reduction): 8%
[2]
  δ,κ,μ IC50 being within a factor of: ≤ 10
[4]
  elevated insulin concentrations: reduced

## O=C1CC[C@@]2(O)[C@H]3Cc4ccc(O)c5c4[C@@]2(CCN3CC2CC2)[C@H]1O5 [Naltrexone]
Body weight
  reduction of body weight: inconsistent results

## CC(C)C[C@H]1C(=O)N2CCC[C@H]2[C@]2(O)O[C@](NC(=O)[C@@H]3C=C4c5cccc6[nH]c(Br)c(c56)C[C@H]4N(C)C3)(C(C)C)C(=O)N12 [bromocriptine, 2-bromo-α-ergocryptine]
[5]
  glucose tolerance: improves glucose tolerance
  insulin values: decreases insulin values toward normal

## C[C@](N)(Cc1ccc(O)cc1)C(=O)O [metyrosine, α-methyltyrosine]
[6]; 4 weeks after discontinuation
  Chol. Tot: 254 mg/dL
  FFA: 747 μE/ml
  Glucose: 122 mg/dL
  HDL: 37 mg/dL
  Insulin: 15 μU/ml
  LDL: 189 mg/dL
  LDL/HDL: 5.1
  TG: 211 mg/dL
[6]; 4 weeks following discontinuation
  all values after discontinuation of the treatment regimen: returned essentially to their pre-study levels
[6]; 8 weeks of 250 mg twice daily
  Chol. Tot: 209 mg/dL
  Glucose: 110 mg/dL
  HDL: 27 mg/dL
  Insulin: 13 μU/ml
  LDL: 134 mg/dL
  LDL/HDL: 5.0
  TG: 144 mg/dL
  free fatty acids (FFA): 575 μE/L
[6]; 8 weeks of 250 mg twice daily (Table I)
  FFA: 575 μE/ml
[6]; [13]
  decrease of HDL: 34%
  decrease of LDL: 24%
  decrease of fasting blood glucose level (BGL): 10%
  decrease of free fatty acids (FFA): 23%
  decrease of insulin: 32%
  decrease of total cholesterol (TCH): 30%
  decrease of triglycerides (TG): 31%
[6]; 14 weeks of 250 mg twice daily
  HDL: 39 mg/dL
  LDL: 119 mg/dL
  LDL/HDL: 3.1
  total reduction of LDL from the beginning of the study: 32%
[6]; initial level
  free fatty acids (FFA): 742 μE/L
[6]; [14]
  Chol. Tot: 299 mg/dL
  Glucose: 121 mg/dL
  HDL: 41 mg/dL
  Insulin: 19 μU/ml
  LDL: 176 mg/dL
  LDL/HDL: 4.3
  TG: 208 mg/dL
[6]; initial levels, before treatment (Table I)
  FFA: 742 μE/ml
[6]; week 8
  body weight: slight decrease

## Oc1ccc2c3c1O[C@H]1c4[nH]c5c(c4C[C@@]4(O)[C@@H](C2)N(CC2CC2)CC[C@]314)C[C@@]1(O)[C@H]2Cc3ccc(O)c4c3[C@@]1(CCN2CC1CC1)[C@H]5O4 [nor-binaltorphimine]
[7]
  outcome after experimental brain trauma: improves the outcome

## β-endorphin: synthetic human β-endorphin (YGGFMTSEKSQTPLVTLFKNAIIKNAYKKGE; Beta-endorphin; UniProt P01189 237-267, looked up)
Adult male rats
  plasma concentrations of catecholamines: increased plasma concentrations of epinephrine, norepinephine, and dopamine
